According to publication PMC3914206:

Tests used:
Assay type in all cases: binding
Details in all cases: Compound Concentration 10 µM
[1] = target: T1, panel of 442 kinases (Homo sapiens, UniProt O60331)
T1 construct: purchased KINOMEscan
From the text: (§1) We assessed the selectivity of members of this scaffold using the KINOMEscan methodology across a near comprehensive panel of 442 kinases [[18,27]].

[2] = target: T2, panel of 442 kinases (Homo sapiens, UniProt O94768)
T2 construct: purchased KINOMEscan
T2 sequence (O94768 1-372): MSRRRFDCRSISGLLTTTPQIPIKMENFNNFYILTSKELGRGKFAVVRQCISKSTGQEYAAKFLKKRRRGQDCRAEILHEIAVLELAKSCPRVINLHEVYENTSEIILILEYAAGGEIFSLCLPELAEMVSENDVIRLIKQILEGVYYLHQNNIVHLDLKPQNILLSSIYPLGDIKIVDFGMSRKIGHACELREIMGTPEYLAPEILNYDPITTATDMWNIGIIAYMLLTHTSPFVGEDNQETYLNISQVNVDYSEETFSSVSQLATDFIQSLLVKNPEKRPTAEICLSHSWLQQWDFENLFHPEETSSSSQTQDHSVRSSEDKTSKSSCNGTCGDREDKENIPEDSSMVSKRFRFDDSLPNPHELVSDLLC
From the text: as §1

[3] = target: T3, panel of 442 kinases (Homo sapiens, UniProt Q8NE63)
T3 construct: purchased KINOMEscan
T3 sequence (Q8NE63 1-616): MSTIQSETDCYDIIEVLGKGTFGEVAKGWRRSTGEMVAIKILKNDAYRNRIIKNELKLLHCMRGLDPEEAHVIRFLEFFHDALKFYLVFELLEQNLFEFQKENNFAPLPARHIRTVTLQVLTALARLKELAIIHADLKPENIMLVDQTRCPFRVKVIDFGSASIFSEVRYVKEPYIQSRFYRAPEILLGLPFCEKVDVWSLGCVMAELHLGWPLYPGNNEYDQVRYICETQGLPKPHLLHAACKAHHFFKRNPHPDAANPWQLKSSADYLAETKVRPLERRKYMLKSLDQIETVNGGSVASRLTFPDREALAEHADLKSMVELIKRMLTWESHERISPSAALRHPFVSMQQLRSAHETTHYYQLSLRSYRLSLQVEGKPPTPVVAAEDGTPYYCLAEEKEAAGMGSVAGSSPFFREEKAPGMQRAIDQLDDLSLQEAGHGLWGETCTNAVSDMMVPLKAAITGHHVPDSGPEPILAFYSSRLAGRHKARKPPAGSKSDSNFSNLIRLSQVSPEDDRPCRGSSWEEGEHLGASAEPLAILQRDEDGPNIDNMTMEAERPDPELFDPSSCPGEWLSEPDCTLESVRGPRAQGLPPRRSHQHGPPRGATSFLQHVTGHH
From the text: as §1

T1 sequence (O60331 whole entry): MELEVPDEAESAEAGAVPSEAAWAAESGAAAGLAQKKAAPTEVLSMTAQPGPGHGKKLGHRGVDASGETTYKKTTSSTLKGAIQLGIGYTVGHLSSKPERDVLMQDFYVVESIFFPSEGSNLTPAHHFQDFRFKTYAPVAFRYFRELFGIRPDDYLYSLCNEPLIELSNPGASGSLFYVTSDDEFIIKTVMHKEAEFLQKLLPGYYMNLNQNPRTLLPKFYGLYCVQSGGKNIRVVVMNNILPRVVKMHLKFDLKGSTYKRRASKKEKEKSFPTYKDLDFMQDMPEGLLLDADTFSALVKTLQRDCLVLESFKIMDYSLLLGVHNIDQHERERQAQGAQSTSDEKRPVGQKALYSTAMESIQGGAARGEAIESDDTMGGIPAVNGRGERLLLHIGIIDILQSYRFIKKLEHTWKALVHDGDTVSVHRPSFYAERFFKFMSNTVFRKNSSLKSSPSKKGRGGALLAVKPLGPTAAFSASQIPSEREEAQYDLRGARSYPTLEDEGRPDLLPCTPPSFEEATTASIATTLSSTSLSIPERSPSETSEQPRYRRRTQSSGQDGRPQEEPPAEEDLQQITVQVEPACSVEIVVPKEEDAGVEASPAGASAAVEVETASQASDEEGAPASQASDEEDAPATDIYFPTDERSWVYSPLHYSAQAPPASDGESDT

Structure (SMILES)	KINOMEscan: PIP5K1C [1]	KINOMEscan: DRAK2 [2]	KINOMEscan: HIPK4 [3]
COc1cc(C(=O)N2CCC(N3CCN(C)CC3)CC2)ccc1Nc1ncc2c(n1)N(C)c1ccccc1C(=O)N2C [15 (LRRK2-IN-1)]	96	93	100
COc1cc(C(=O)N2CCC(N3CCN(C)CC3)CC2)ccc1Nc1ncc2c(n1)N1CCc3cccc(c31)C(=O)N2C [Compound 24]	6.3		50
COc1cc(C(=O)N2CCC(N3CCN(C)CC3)CC2)ccc1Nc1ncc2c(n1)N(C1CCCC1)c1ccccc1C(=O)N2C [Compound 25, 11-cyclopentyl-2-((2-methoxy-4-(4-(4-methylpiperazin-1-yl)piperidine-1-carbonyl)phenyl)amino)-5-methyl-5H-benzo[e]pyrimido[5,4-b][1,4]diazepin-6(11H)-one]	100	100	87
CCOc1cc(C(=O)N2CCC(N3CCN(C)CC3)CC2)ccc1Nc1ncc2c(n1)N(C1CCCC1)c1ccccc1C(=O)N2C [Compound 26]	100	100	100
